In patent US12263248B2, “Compounds and compositions for intracellular delivery of therapeutic agents” (ModernaTX, Inc., priority 2018, dated 2025):
“Also recorded” adds a separate entry of the source.

Columns and labels:
[1] = tested on: luciferase (Luc) mRNA; test: Luc expression, whole body bioluminescence after intravenous administration to mice; assay type: in vivo; conditions: for Total Flux 3 hours / Total Flux 6 hours / Total Flux 24 hours / luciferase activity relative to MC3 LNP control: mice; for Total Flux 3 hours / Total Flux 6 hours / Total Flux 24 hours: i.v., Luc mRNA; for Fold increase in total body Luc Flux relative to MC3 at 6 h: Table 3A, i.v. administration; for Novel lipid/MC3 ratio, 6 hr. timepoint, i.v. / Novel lipid/MC3 expression ratio, 6 hr. time point, i.v.: luciferase; for Novel lipid/MC3 ratio, 6 hr. timepoint, i.v.: relative to MC3, Table 3G; for Novel lipid/MC3 expression ratio, 6 hr. time point, i.v.: relative to MC3 formulation; for Lipid/MC3 Luc expression: 0.5 mpk dose to mouse, 6 hours after administration; for luciferase activity relative to MC3 LNP control: 0.5 mg/kg (mRNA dose)
In short: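 Bioluminescence, read as region-of-interest total flux at 3, 6 and 24 h, followed a single 0.5 mg/kg intravenous dose of Luc mRNA-loaded nanoparticles in mice (n=6). Luciferin substrate (200 μL, 15 mg/mL in PBS) was injected intraperitoneally into CD-1 mice 15 minutes ahead of each imaging point.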

[2] = Apparent (surface) pKa of the LNP formulation (TNS assay); assay type: physicochemical
In short: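 Fluorescence of TNS probe added to LNP samples (mRNA 0.04 mg/mL) was read across 21 buffers of pH about 3-12, triplicate per pH. The inflection point of the sigmoidal fluorescence-vs-pH curve, […], gives apparent pKa; method validated in 1× PBS and Tris/sucrose buffer.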

[3] = Encapsulation efficiency of RNA (QUANT-IT RIBOGREEN RNA assay); assay type: physicochemical; conditions: for % Encapsulation: lipid nanoparticle, ±SD within one assay run (Table 37); for EE: nanoparticle composition with hEPO mRNA (Table 30)
In short: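 RiboGreen fluorescence (ex ~480, em ~520 nm) compared between intact samples and Triton X-100-lysed samples after 15 min at 37 °C in TE buffer, pH 7.5. Percent free RNA is the blank-corrected intact/disrupted ratio.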

[4] = tested on: luciferase (Luc) mRNA; test: Luc expression (total flux) after intramuscular administration; assay type: in vivo, mice; conditions: for Total flux, 0.001 mpk Dose / Total flux, 0.01 mpk Dose: 6 hours after intramuscular administration, Luc mRNA and H10 mRNA
In short: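 Total-flux luciferase signal in mice after one intramuscular injection. Nanoparticle formulations contained modified Luc mRNA, either alone or co-dosed with H10 mRNA (e.g., 0.0005 or 0.005 mpk of each), giving 0.001 or 0.01 mpk.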

[5] = Table 1C, compositions for subcutaneous administration
[6] = lipid nanoparticle, ±SD within one assay run (Table 37)

Structure (SMILES)	Total Flux 3 hours ([1]; 0.5 mg/kg)	Total Flux 6 hours ([1]; 0.5 mg/kg)	Total Flux 24 hours ([1]; 0.5 mg/kg)	pKa ([2]; Table 1A)	EE (%) ([3]; Table 1A)	Total flux, 0.001 mpk Dose ([4]; 0.001 mpk) [p/s]	Total flux, 0.01 mpk Dose ([4]; 0.01 mpk) [p/s]	Fold increase in total body Luc Flux relative to MC3 at 6 h [1]	Novel lipid/MC3 ratio, 6 hr. timepoint, i.v. ([1]; intravenous)	Novel lipid/MC3 expression ratio, 6 hr. time point, i.v. ([1]; intravenous)	% EE [3, 5] [%]	Lipid/MC3 Luc expression [1]	pKa [2, 6]	% Encapsulation [3] [%]	EE [3] [%]	other results
CCCCCCCCCOC(=O)CCCCCCCN(CCO)CCCCCCCCCC(=O)OC(CCCCCCCC)CCCCCCCC [Compound 23, Heptadecan-9-yl 10-((2-hydroxyethyl)(8-(nonyloxy)-8-oxooctyl)amino) decanoate]	1.83E+09	1.15E+09	3.71E+08	6.84	92.68	8.27E+06	2.20E+06	–	–	–	–	–	–	–	–	App. pKa ([2]; Table 3F): 6.88; % EE ([3]; Table 1E, compositions for subcutaneous administration): 98%
CCCCCC/C=C\COC(=O)CCCCCCCN(CCO)CCCCCCCC(=O)OC(CCCCCCCC)CCCCCCCC [Compound 24, Heptadecan-9-yl (Z)-8_((2-hydroxyethyl) (8-(non-2-en-1-yloxy)-8-oxooctyl)amino)octanoate]	1.72E+10	2.25E+10	1.83E+09	6.71	97.16	3.78E+06	3.97E+07	2.67	2.67	2.67	90.5	–	–	–	–	–
CCCCCCCCCCCOC(=O)CCCCCN(CCO)CCCCCCCC(=O)OC(CCCCCCCC)CCCCCCCC [Compound 25, Heptadecan-9-yl 8-((2-hydroxyethyl)(6-oxo-6-(undecyloxy)hexyl)amino)octanoate]	2.27E+10	1.59E+10	9.77E+08	6.68	95.80	3.53E+06	9.96E+07	1.89	1.89	1.89	98.1	1.89	6.68 ± 0.29	95.8 ± 1.0	87.01	luciferase activity relative to MC3 LNP control ([1]; intravenous): higher expression compared to MC3; EE (%) ([3]; Table 1B, formulated with hEPO mRNA): 97.92%; % EE ([3]; Table 1D, for subcutaneous administration, # formulated with hEPO mRNA): 97.8%; Novel lipid/MC3 expression ratio, 6 hr. time point, i.m. Luc ([4]; intramuscular, relative to MC3 formulation): 1.46
CCCCCCCCCOC(=O)CCCN(CCO)CCCCCCCC(=O)OC(CCCCCCCC)CCCCCCCC [Compound 26, Heptadecan-9-yl 8-((2-hydroxyethyl)(4-(nonyloxy)-4-oxobutyl)amino) octanoate]	6.75E+10	1.57E+10	1.54E+09	6.64	97.43	3.90E+06	6.13E+07	4.24	–	–	–	4.24	6.64 ± 0.14	97.4 ± 0.2	95.60	fold increase in Luc expression over MC3 formulations ([1]; intravenous administration, in words): highest fold increase; Fold increase in Luc expression relative to MC3, Intravenous (0.5 mpk dose) ([1]; intravenous, 0.5 mpk): 4.24; luciferase activity relative to MC3 LNP control ([1]; intravenous, 0.5 mg/kg): higher expression compared to MC3; also recorded: highest luciferase activity of the series; pKa ([2]; Table 6): 6.64; Fold increase in Luc expression relative to MC3, Intramuscular (0.001 mpk dose) ([4]; intramuscular, 0.001 mpk): 0.56; Fold increase in Luc expression relative to MC3, Intramuscular (0.01 mpk dose) ([4]; intramuscular, 0.01 mpk): 1.39
CCCCCCCCCOC(=O)CCCCCCCN(CCO)CCCCCC(=O)OC(CCCCCCCC)CCCCCCCC [Compound 27, Nonyl 8-((6-(heptadecan-9-yloxy)-6-oxohexyl)(2-hydroxyethyl)amino) octanoate]	1.64E+10	1.03E+10	1.94E+09	6.78	94.27	2.55E+06	3.17E+07	0.31	–	–	–	–	–	–	–	–
